Active and inactive are the calls of the source. The calls are words filed in the database; no cut-off is given here.
What was measured:
[1] = biological target: Free fatty acid receptor 1 (Rattus norvegicus) (UniProt Q8K3T4); experiment: Agonist activity at rat GPR40 receptor expressed in CHOK1 cells assessed as induction of IP1 accumulation at 10 uM relative to AM1638; format: functional, cell-based; details: CHO-K1, filed as agonist
[2] = biological target: Free fatty acid receptor 1 (Rattus norvegicus) (UniProt Q8K3T4); experiment: Agonist activity at rat GPR40 receptor expressed in CHOK1 cells assessed as induction of IP1 accumulation at 10 uM; format: functional, cell-based; details: CHO-K1, filed as agonist
[3] = Apparent permeability from apical to basolateral side in dog MDCK-MDR1 cells; format: ADME, cell-based, Canis lupus familiaris
[4] = Intrinsic clearance in rat assessed as half-life at 1 uM; format: ADME
[5] = Clearance in cynomolgus monkey; format: ADME, Macaca fascicularis; details: in vivo
[6] = biological target: T1, Free fatty acid receptor 1 (Rattus norvegicus, UniProt Q8K3T4); experiment: Agonist activity at GPR40 receptor in rat INS1(832/13) cells assessed as induction of IP1 accumulation; format: functional, cell-based, INS-1 832/13
[7] = Protein binding in human plasma; format: ADME, cell-free; details: read-out: PPB (converted)
[8] = Half life in iv dosed cynomolgus monkey; format: ADME, organism-based, Macaca fascicularis; details: in vivo
Rattus norvegicus [9] = experiment: Anti-glycemic activity in fasted Sprague-Dawley ZDF rat assessed as increase in insulin secretion by measuring insulin level in plasma at 10 mg/kg administered 30 mins prior to glucose challenge measured after 140 mins by OGTT; format: functional; details: time 170 min, 2.833 h
[10] = biological target: T1, Free fatty acid receptor 1; experiment: Agonist activity at rat GPR40 transfected in HEK293 cells assessed as increase in intracellular calcium level incubated for 1 hr by Fluo-8 dye based fluorescence analysis; format: functional, cell-based
[11] = biological target: T2, Peroxisome proliferator-activated receptor gamma (Homo sapiens) (UniProt P37231); experiment: Agonist activity at PPARgamma (unknown origin); format: cell-based; details: HEK293
T2 sequence (whole entry): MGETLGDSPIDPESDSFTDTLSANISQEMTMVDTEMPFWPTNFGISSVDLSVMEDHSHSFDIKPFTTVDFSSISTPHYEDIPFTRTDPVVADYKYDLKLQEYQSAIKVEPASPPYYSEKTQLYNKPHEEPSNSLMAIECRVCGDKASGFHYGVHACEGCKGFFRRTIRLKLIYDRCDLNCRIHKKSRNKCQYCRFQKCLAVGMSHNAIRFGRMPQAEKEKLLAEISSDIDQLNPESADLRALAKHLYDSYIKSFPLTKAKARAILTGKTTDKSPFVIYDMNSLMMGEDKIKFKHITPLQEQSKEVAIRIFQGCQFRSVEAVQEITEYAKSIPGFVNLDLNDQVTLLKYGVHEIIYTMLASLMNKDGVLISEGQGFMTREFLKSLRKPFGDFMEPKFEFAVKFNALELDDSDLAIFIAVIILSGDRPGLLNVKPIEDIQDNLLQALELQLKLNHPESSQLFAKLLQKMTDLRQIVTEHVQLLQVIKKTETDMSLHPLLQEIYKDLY

[12] = Protein binding in rat plasma; format: ADME, cell-free; details: read-out: PPB (converted)
[13] = Clearance in rat; format: ADME; details: in vivo
[14] = Apparent permeability across apical to basolateral side in human Caco2 cells; format: ADME, cell-based; details: Caco-2
[15] = Cmax in dog; format: ADME, Canis lupus familiaris; details: in vivo
[16] = biological target: T3, Peroxisome proliferator-activated receptor alpha (Homo sapiens) (UniProt Q07869); experiment: Agonist activity at PPARalpha (unknown origin)
T3 sequence (whole entry): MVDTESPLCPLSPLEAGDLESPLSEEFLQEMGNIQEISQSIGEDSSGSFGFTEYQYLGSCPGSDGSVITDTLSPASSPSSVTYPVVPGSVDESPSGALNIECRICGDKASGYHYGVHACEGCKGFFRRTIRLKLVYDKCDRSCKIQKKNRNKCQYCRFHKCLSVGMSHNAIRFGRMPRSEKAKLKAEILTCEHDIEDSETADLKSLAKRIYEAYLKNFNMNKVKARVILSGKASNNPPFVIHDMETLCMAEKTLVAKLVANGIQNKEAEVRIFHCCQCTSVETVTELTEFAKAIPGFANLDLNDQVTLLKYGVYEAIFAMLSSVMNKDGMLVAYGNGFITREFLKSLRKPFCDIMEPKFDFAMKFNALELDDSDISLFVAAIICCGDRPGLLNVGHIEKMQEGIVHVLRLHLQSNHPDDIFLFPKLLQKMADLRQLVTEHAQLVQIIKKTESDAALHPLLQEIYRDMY

[17] = biological target: T4, Free fatty acid receptor 1 (Homo sapiens, UniProt O14842); experiment: Agonist activity at human GPR40 receptor expressed in CHOK1 cells assessed as induction of IP1 accumulation at 10 uM; format: functional, cell-based; details: CHO-K1, filed as agonist
Rattus norvegicus [18] = experiment: Anti-glycemic activity in fasted Sprague-Dawley ZDF rat assessed as reduction in post-prandial hyperglycemia by measuring AUC(0 to 2 hrs) for blood glucose at 3 mg/kg administered for 1 day and measured on day 1 by OGTT; format: functional
[19] = biological target: T4, Free fatty acid receptor 1; experiment: Agonist activity at human GPR40 receptor expressed in CHOK1 cells assessed as induction of IP1 accumulation; format: functional, cell-based, CHO-K1
[20] = Volume of distribution at steady state in rat; format: ADME; details: in vivo, read-out: Vdss
[21] = biological target: T4, Free fatty acid receptor 1; experiment: Agonist activity at GPR40 in human islets assessed as induction of glucose-stimulated insulin secretion at 0.3 to 10 uM; format: tissue-based; details: Pancreatic islet, filed as agonist, dose 0.3-10 µM
[22] = Cmax in cynomolgus monkey; format: ADME, Macaca fascicularis; details: in vivo
[23] = biological target: T1, Free fatty acid receptor 1; experiment: Agonist activity at rat GPR40 receptor expressed in CHOK1 cells assessed as induction of IP1 accumulation; format: functional, cell-based, CHO-K1
[24] = biological target: T4, Free fatty acid receptor 1; experiment: Agonist activity at human GPR40 receptor expressed in CHOK1 cells assessed as induction of IP1 accumulation at 10 uM relative to TAK875; format: functional, cell-based; details: CHO-K1, filed as agonist
[25] = Clearance in dog; format: ADME, Canis lupus familiaris; details: in vivo
[26] = Half life in iv dosed rat; format: ADME, organism-based; details: in vivo
Cytochrome P450 2C19 = Cytochrome P450 2C19 (Homo sapiens, UniProt P33261); experiment: Inhibition of CYP2C19 (unknown origin); format: ADME
[27] = Apparent permeability from basolateral to apical side in dog MDCK-MDR1 cells; format: ADME, cell-based, Canis lupus familiaris
Rattus norvegicus [28] = experiment: Anti-glycemic activity in fasted Sprague-Dawley ZDF rat assessed as increase in insulin secretion by measuring insulin level in plasma administered 30 mins prior to glucose challenge measured after 140 mins by OGTT; format: functional, organism-based; details: dose 1-10 mg/kg, time 170.0 min
[29] = Oral bioavailability in rat; format: ADME, organism-based; details: in vivo
[30] = biological target: Free fatty acid receptor 1 (Mus musculus, UniProt Q76JU9); experiment: Agonist activity at mouse GPR40 assessed as increase in intracellular calcium level; format: functional, cell-based
[31] = Hepatic clearance in rat; format: ADME; details: in vivo

T4 sequence (O14842 whole entry): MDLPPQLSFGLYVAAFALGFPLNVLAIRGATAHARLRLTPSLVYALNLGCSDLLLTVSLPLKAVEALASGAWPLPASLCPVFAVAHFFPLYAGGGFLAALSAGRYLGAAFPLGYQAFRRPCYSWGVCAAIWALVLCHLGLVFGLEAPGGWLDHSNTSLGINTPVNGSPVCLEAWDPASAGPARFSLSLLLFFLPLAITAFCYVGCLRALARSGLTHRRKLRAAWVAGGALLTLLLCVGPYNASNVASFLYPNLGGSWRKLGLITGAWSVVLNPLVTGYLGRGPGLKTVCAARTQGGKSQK
T1 sequence (Q8K3T4 whole entry): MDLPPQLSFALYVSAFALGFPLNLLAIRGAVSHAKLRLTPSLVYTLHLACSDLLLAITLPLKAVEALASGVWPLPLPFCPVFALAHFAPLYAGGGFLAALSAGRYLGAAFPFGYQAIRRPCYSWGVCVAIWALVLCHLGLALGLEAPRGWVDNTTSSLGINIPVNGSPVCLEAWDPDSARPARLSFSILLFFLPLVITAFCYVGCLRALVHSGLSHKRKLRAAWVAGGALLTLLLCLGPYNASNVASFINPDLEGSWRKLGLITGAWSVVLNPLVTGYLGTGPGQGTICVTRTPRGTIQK
Chain of Free fatty acid receptor 1 (Rattus norvegicus) (Q8K3T4 whole entry): as above
Chain of Free fatty acid receptor 1 (Mus musculus, UniProt Q76JU9) (Q76JU9 whole entry): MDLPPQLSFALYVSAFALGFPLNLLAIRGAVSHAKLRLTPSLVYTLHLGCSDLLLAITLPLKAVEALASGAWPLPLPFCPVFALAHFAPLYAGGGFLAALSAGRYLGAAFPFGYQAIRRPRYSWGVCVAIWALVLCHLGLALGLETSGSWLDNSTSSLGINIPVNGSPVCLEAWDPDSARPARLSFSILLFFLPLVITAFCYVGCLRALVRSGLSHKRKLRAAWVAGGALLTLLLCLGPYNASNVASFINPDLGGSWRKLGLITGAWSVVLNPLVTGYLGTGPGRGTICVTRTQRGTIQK
Chain of Cytochrome P450 2C19 (P33261 whole entry): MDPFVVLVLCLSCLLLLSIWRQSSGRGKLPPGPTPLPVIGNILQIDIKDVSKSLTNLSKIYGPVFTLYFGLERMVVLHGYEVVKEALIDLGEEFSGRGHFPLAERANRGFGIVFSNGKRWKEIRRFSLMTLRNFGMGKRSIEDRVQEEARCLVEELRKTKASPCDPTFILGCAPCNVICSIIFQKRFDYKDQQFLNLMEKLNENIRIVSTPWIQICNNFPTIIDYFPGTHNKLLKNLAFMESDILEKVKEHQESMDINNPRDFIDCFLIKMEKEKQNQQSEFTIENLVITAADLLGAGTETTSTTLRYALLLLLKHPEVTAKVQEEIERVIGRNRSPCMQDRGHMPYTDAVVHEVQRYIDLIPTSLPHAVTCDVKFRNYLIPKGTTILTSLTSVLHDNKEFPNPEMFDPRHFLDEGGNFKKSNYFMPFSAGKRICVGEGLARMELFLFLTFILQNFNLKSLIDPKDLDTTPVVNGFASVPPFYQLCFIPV

Molecule COc1cc(-c2ncc(COc3cccc([C@@H](CC(=O)O)C4CC4)c3)nc2CC(C)C)c(F)cn1 has an Activity [1] of 95%, an Activity [2] of 572 nM and a Papp A→B [3] of 50 ×10⁻⁶ cm/s. It also gave a half-life at 1 µM [4] of 0.8 h, a clearance [5] of 2.19 mL/min/kg and an EC50 [6] of 862 nM. For the same molecule, the fraction unbound [7] was 0.0012, the half-life [8] was 11.2 h and the Activity (Rattus norvegicus [9]) was 16925 ng/mL. The EC50 [10] was 17 nM, the Activity [11] was “inactive” and the fraction unbound [12] was 0.0009. It also gave a clearance [13] of 2.37 mL/min/kg, a Papp A→B [14] of 40 ×10⁻⁶ cm/s and a Cmax [15] of 1550 ng/mL. For the same molecule, the Activity [16] was “inactive”, the Activity [17] was 1040 nM and the Activity (Rattus norvegicus [18]) was 15896 ng/mL.hr. The EC50 [19] was 894 nM, the Vd [20] was 0.384 L/kg and the Activity [21] was “Active”. The Cmax [22] was 8570 ng/mL, the EC50 [23] was 547 nM and the Activity [24] was 354%. For the same molecule, the clearance [25] was 8.36 mL/min/kg, the half-life [26] was 2.71 h and the IC50 (Cytochrome P450 2C19) was > 10000 nM. The Papp B→A [27] was 82 ×10⁻⁶ cm/s, the Activity (Rattus norvegicus [28]) was “Dose-dependent effect” and the bioavailability [29] was 123%. It also gave an EC50 [30] of 38 nM and a CLH [31] of 26.8 mL/min/kg.

— ChEMBL document CHEMBL4673209, “Discovery of a novel potent GPR40 full agonist” (Bioorg Med Chem Lett, 2018)
